Measured values from patent publication US8153648B2, “Solid and crystalline dutasteride and processes for preparation thereof” (Gador S.A., priority 2008, dated 2012).

Assays:
[1] = stability on exposure to different humidity conditions; format: physicochemical
[2] = intrinsic dissolving speed (VDI) study; format: physicochemical; conditions: for change of crystalline or polymorphous structure during the dissolving assay: SDS 2% in hydrochloric acid 0.1N 225 ml, detected in the study chart
Method: These study has been carried out using Lauril Sodium Sulphate SDS 2% in hydrochloric acid 0.1N 225 ml. as dissolvent. At the established experimental conditions, changes were seen depending on the crystalline or polymorphous structure present.

C[C@]12C=CC(=O)NC1CCC1C2CC[C@]2(C)C(C(=O)Nc3cc(C(F)(F)F)ccc3C(F)(F)F)CCC12 (stereo partly drawn) [Crystalline Form II of dutasteride, 17β-N-[2,5-bis(trifluoromethyl)phenyl]carbamoyl-4-aza-5-α-androst-1-en-3-one]
changes in the solid Form with XR study ([1]; 66% and 75% HR, 60-day period): No changes were observed | stability when exposed to humidity ([1]; 66% and 75% HR, 60-day period): stable | water content (KF), final sample ([1]; after 60 days at 66% and 75% HR): 2.1 | water content (KF), initial sample ([1]; before humidity exposure): 1.9 | change of crystalline or polymorphous structure during the dissolving assay [2]: did not show any changes

C[C@]12C=CC(=O)NC1CCC1C2CC[C@]2(C)C(C(=O)Nc3cc(C(F)(F)F)ccc3C(F)(F)F)CCC12 (stereo partly drawn) [Crystalline Form III of dutasteride, 17β-N-[2,5-bis(trifluoromethyl)phenyl]carbamoyl-4-aza-5-α-androst-1-en-3-one]
intrinsic dissolving speed value (VDI) ([2]; Lauril Sodium Sulphate SDS 2% in hydrochloric acid 0.1N 225 ml as dissolvent): of the same magnitude of the crystalline forms described in the previous art

C[C@]12C=CC(=O)NC1CCC1C2CC[C@]2(C)C(C(=O)Nc3cc(C(F)(F)F)ccc3C(F)(F)F)CCC12 (stereo partly drawn) [amorphous Form, 17β-N-[2,5-bis(trifluoromethyl)phenyl]carbamoyl-4-aza-5-α-androst-1-en-3-one]
change of crystalline or polymorphous structure during the dissolving assay [2]: did not show any changes

C[C@]12C=CC(=O)NC1CCC1C2CC[C@]2(C)C(C(=O)Nc3cc(C(F)(F)F)ccc3C(F)(F)F)CCC12 (stereo partly drawn) [Form I, 17β-N-[2,5-bis(trifluoromethyl)phenyl]carbamoyl-4-aza-5-α-androst-1-en-3-one]
change of crystalline or polymorphous structure during the dissolving assay [2]: transformation into Form III
